The target of data set [1] is chromatographically-purified MMP-2 (Homo sapiens (Human), UniProt P08253). In words: MMP-2 inhibition in vitro, octapeptide/HPLC. The class given is biochemical. The settings on record: for IC50: read-out: IC50 MMP-2; for Ratio = IC50 test compound/IC50 standard, MMP-2: standard 1,10-phenanthroline.
The target of data set [2] is MMP-9 (human leukocyte gelatinase) (Homo sapiens (Human), UniProt P14780). As to the kind of experiment: MMP-9 inhibition in vitro, octapeptide/HPLC. The class given is biochemical. The source says:
In contrast all three chemically-modified curcumins at 100 μm final concentration inhibited gelatinase activity by 68-100% (FIG. 6 and Table 6).

The target in a further data set is purified human PMN MMP-8 (Homo sapiens (Human), UniProt P22894). In words: MMP-8 inhibition, synthetic octapeptide substrate, tripeptide product by HPLC. The class given is biochemical.
In data set [3] the target is chromatographically-purified MMP-13 (Collagenase-3) (Homo sapiens (Human), UniProt P45452). In words: MMP-13 inhibition in vitro, octapeptide/HPLC. The class given is biochemical. The settings on record: for Ratio = IC50 test compound/IC50 standard, MMP-13: standard 1,10-phenanthroline.
A short description of data set [4]: Solubility in aqueous solutions. The class given is physicochemical.
Data set [5] deals with neonatal rat ventricular myocytes. In words: Hydrogen peroxide induced LDH release. Type of data set: cell-based. The settings on record: 10 μM, H2O2 100 μM. Here is the method: Test compounds and concentrations (MMP inhibitors, MMPi): • 1. GM-6001: 10 μM • 2. ONO-4817: 10 μM • 3.
Neonatal rat ventricular myocytes, serum starved for 24 h, were treated with the inhibitors 1 h prior to the addition of 100 μM of hydrogen peroxide (Sigma). LDH release in the conditioned media was quantified using CytoTox-ONE Homogeneous Membrane Integrity Assay reagent (Promega) at the indicated time points.
On the technique in general: Release of lactate dehydrogenase indicates damage to the cell membrane.

Entries after “also recorded” stand apart in the source; their conditions may differ. Like-named read-outs stand apart in the source and are kept apart here. Where only a bound is given, the exact number is not on record here.

Chain of chromatographically-purified MMP-2 (P08253 110-660): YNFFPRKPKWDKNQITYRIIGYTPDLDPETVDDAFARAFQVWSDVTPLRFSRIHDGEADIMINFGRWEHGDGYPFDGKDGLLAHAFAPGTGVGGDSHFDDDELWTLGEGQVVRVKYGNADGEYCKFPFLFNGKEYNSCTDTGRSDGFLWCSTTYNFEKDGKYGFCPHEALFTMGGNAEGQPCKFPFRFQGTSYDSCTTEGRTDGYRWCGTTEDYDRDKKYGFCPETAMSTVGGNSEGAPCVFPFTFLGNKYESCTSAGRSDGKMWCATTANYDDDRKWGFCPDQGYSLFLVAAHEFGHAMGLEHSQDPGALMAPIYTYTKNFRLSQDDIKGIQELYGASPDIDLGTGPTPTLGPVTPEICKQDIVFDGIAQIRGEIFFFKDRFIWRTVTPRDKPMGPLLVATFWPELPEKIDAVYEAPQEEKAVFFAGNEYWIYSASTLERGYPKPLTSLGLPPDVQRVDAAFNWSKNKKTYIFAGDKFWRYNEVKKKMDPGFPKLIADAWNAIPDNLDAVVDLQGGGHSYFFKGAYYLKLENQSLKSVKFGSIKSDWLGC
Chain of MMP-9 (human leukocyte gelatinase) (P14780 94-707): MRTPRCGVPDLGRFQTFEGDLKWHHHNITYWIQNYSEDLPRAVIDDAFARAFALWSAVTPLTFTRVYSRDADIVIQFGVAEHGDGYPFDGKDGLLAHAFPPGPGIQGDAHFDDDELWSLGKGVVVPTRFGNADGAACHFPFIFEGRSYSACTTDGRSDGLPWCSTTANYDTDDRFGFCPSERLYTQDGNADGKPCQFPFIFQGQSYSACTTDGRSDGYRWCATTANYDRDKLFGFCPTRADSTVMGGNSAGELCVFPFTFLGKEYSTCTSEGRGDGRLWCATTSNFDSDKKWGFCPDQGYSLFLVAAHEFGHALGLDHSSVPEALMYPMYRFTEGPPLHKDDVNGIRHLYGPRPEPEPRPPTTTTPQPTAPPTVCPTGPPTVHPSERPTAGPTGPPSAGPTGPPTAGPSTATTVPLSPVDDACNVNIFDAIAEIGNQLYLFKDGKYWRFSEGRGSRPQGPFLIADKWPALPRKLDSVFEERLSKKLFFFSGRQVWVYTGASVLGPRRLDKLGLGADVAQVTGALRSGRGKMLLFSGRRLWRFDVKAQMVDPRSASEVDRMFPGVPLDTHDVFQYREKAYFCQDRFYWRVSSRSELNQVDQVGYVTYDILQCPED
Chain of purified human PMN MMP-8 (P22894 101-467): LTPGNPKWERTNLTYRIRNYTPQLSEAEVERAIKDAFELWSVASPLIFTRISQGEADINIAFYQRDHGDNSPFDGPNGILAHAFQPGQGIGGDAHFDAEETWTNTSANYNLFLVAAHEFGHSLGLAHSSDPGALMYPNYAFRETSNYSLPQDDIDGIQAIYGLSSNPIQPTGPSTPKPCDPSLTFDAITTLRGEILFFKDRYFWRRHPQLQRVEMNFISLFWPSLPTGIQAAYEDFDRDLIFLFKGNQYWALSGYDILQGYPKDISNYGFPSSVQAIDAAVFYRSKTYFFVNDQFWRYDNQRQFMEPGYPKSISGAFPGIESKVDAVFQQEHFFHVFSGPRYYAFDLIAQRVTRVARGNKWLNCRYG

A word on the IC50: it is the midpoint of a concentration-inhibition curve. Regarding `c1cnc2c(c1)ccc1cccnc12` [1,10-O-phenanthroline, reference compound], the half-inhibitory concentration (IC50) was 70 µM in data set [1]; 9 µM in data set [2]; 10 to 35 µM at purified human PMN MMP-8 (Table 1 experiments, read-out: IC50 against purified hMMP-8); 4 µM in data set [3]. Besides, the “Ratio = IC50 test compound/IC50 standard, MMP-2” value in data set [1] was 1.0. Further, the “Ratio of each IC50 to IC50 of 1,10-O-phenanthroline” value at purified human PMN MMP-8 (hMMP-8) was 1 = 35 μM 1 = 10 μM. Besides, the “Ratio = IC50 test compound/IC50 standard, MMP-13” value in data set [3] came to 1.0.

`COC(=O)C(C(=O)/C=C/c1ccccc1)C(=O)/C=C/c1ccccc1` [Compound 2]: on purified human PMN MMP-8 (Table 1 experiments), the “IC50 against purified hMMP-8” value was “did not show a dose response; also recorded: No dose response”.

Turning to `COC(=O)C(C(=O)/C=C/c1ccc(O)cc1)C(=O)/C=C/c1ccc(O)cc1` [Compound 3, 1,7-Bis(4-hydroxyphenyl)-4-methoxycarbonylhepta-1E,6E-dien-3,5-dione], the half-maximal inhibitory concentration (IC50) in data set [1] is 70 µM; in data set [2], 6 µM; at purified human PMN MMP-8 (Example 7 experiment, 1 mM Ca++, 37° C., read-out: IC50, human neutrophil collagenase (MMP-8)), at most 5 µM; in data set [3], 8 µM. Further, the “Ratio = IC50 test compound/IC50 standard, MMP-2” value in data set [1] amounted to 1.0. For the same compound, the “Solubility in aqueous solutions (comparative)” value in data set [4] was “more soluble in aqueous solutions than compound 1”. Further, in data set [3], the “Ratio = IC50 test compound/IC50 standard, MMP-13” value turned out to be 2.0.

For the compound `COc1cc(/C=C/C(=O)CC(=O)/C=C/c2ccc(N(C)C)cc2)ccc1O` [Compound 4], in data set [1], the half-inhibitory concentration (IC50) was over 250 µM and the “Ratio = IC50 test compound/IC50 standard, MMP-2” value is recorded as over 3.6. The same compound displayed an IC50 in data set [2] of 17 µM. In data set [3], the IC50 stood at 250 µM and the “Ratio = IC50 test compound/IC50 standard, MMP-13” value was 62.5.

With `COc1cc(/C=C/C(=O)C(C(=O)/C=C/c2ccc(O)c(OC)c2)C(=O)Nc2ccccc2)ccc1O` [Compound 6, 1,7-Bis(4-hydroxy-3-methoxyphenyl)-4-N-phenylaminocarbonylhepta-1E,6E-dien-3,5-dione], the concentration for half-maximal inhibition (IC50) in data set [1] amounted to 85 µM.

Regarding `O=C(/C=C/c1ccc(O)cc1)C(C(=O)/C=C/c1ccc(O)cc1)C(=O)Nc1ccccc1` [Compound 7, 1,7-Bis(4-hydroxyphenyl)-4-N-phenylaminocarbonylhepta-1E,6E-dien-3,5-dione], in data set [1], the IC50 came to 125 µM and the “Ratio = IC50 test compound/IC50 standard, MMP-2” value turned out to be 1.8. Also, in data set [3], the IC50 was under 1 µM and the “Ratio = IC50 test compound/IC50 standard, MMP-13” value was under 0.3.

As for `CN(C)c1ccc(/C=C/C(=O)C(C(=O)/C=C/c2ccc(N(C)C)cc2)C(=O)Nc2ccccc2)cc1` [Compound 8, 1,7-Bis(4-dimethylaminophenyl)-4-N-phenylaminocarbonylhepta-1E,6E-dien-3,5-dione], in data set [1], the “IC50 MMP-2 (μM)” value was “Unmeasurable*”. In data set [3], the IC50 is 45 µM and the “Ratio = IC50 test compound/IC50 standard, MMP-13” value is recorded as 11.3.

Turning to `CNC(=O)[C@H](Cc1c[nH]c2ccccc12)NC(=O)[C@@H](CC(=O)NO)CC(C)C` [GM-6001, reference compound], the “Effect on LDH release” value in data set [5] is “did not affect LDH release”.

In the case of `CCOCOC[C@H](C[C@H](C)C(=O)NO)NC(=O)c1ccc(Oc2ccccc2)cc1` [ONO-4817, reference compound], the “Effect on LDH release” value in data set [5] is recorded as “did not affect LDH release”.
